Source: article PMC11396129, “Oxindole–benzothiazole hybrids as CDK2 inhibitors and anticancer agents: design, synthesis and biological evaluation” (BMC Chemistry, 2024)

Experiments:
CCRF-CEM = test: NCI 60 panel growth inhibition (SRB), leukemia; format: cell-based, human; details: 10 μM
Method in brief: (§1)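 Cells were plated at 5000–40,000/well and drug was added after 24 h at five concentrations (10-fold or ½ log dilutions), with TCA-fixed time-zero plates as reference. Growth was measured by SRB absorbance, percentage growth was computed against time-zero and control, and TGI was taken at Ti = Tz.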

HL-60(TB) = test: NCI 60 panel growth inhibition (SRB), leukemia; format: cell-based, human; details: HL-60(TB), 10 μM
Method in brief: as §1

RPMI-8226 = test: NCI 60 panel growth inhibition (SRB), leukemia; format: cell-based, human; details: RPMI-8226, 10 μM
Method in brief: as §1

A549/ATCC = test: NCI 60 panel growth inhibition (SRB), non-small cell lung cancer; format: cell-based, human; details: 10 μM
Method in brief: as §1

EKVX = test: as above; format: cell-based, human; details: 10 μM
Method in brief: as §1

HOP-62 = test: as above; format: cell-based, human; details: HOP-62, 10 μM
Method in brief: as §1

HOP-92 = test: as above; format: cell-based, human; details: HOP-92, 10 μM
Method in brief: as §1

NCI-H226 = test: as above; format: cell-based, human; details: NCI-H226, 10 μM
Method in brief: as §1

NCI-H23 = test: as above; format: cell-based, human; details: NCI-H23, 10 μM
Method in brief: as §1

NCI-H322M = test: as above; format: cell-based, human; details: 10 μM
Method in brief: as §1

NCI-H460 = test: as above; format: cell-based, human; details: NCI-H460, 10 μM
Method in brief: as §1

NCI-H522 = test: as above; format: cell-based, human; details: NCI-H522, 10 μM
Method in brief: as §1

IGROV1 = test: NCI 60 panel growth inhibition (SRB), ovarian cancer; format: cell-based, human; details: IGROV1, 10 μM
Method in brief: as §1

NCI/ADR-RES = test: as above; format: cell-based, human; details: 10 μM
Method in brief: as §1

OVCAR-3 = test: as above; format: cell-based, human; details: OVCAR-3, 10 μM
Method in brief: as §1

OVCAR-4 = test: as above; format: cell-based, human; details: OVCAR-4, 10 μM
Method in brief: as §1

OVCAR-5 = test: as above; format: cell-based, human; details: OVCAR-5, 10 μM
Method in brief: as §1

OVCAR-8 = test: as above; format: cell-based, human; details: OVCAR-8, 10 μM
Method in brief: as §1

SK-OV-3 = test: as above; format: cell-based, human; details: SK-OV-3, 10 μM
Method in brief: as §1

786-0 = test: NCI 60 panel growth inhibition (SRB), renal cancer; format: cell-based, human; details: 786-0, 10 μM
Method in brief: as §1

A498 = test: NCI 60 panel growth inhibition (SRB), renal cancer; format: cell-based, human; details: A498, 10 μM
Method in brief: as §1

ACHN = test: NCI 60 panel growth inhibition (SRB), renal cancer; format: cell-based, human; details: 10 μM
Method in brief: as §1

CAKI-1 = test: NCI 60 panel growth inhibition (SRB), renal cancer; format: cell-based, human; details: CAKI-1, 10 μM
Method in brief: as §1

RXF 393 = test: NCI 60 panel growth inhibition (SRB), renal cancer; format: cell-based, human; details: RXF 393, 10 μM
Method in brief: as §1

SN12C = test: NCI 60 panel growth inhibition (SRB), renal cancer; format: cell-based, human; details: 10 μM
Method in brief: as §1

TK-10 = test: NCI 60 panel growth inhibition (SRB), renal cancer; format: cell-based, human; details: TK-10, 10 μM
Method in brief: as §1

UO-31 = test: NCI 60 panel growth inhibition (SRB), renal cancer; format: cell-based, human; details: UO-31, 10 μM
Method in brief: as §1

BT-549 = test: NCI 60 panel growth inhibition (SRB), breast cancer; format: cell-based, human; details: BT-549, 10 μM
Method in brief: as §1

HS 578T = test: as above; format: cell-based, human; details: 10 μM
Method in brief: as §1

MCF7 = test: as above; format: cell-based, human; details: MCF7, 10 μM
Method in brief: as §1

MDA-MB-231/ATCC = test: as above; format: cell-based, human; details: 10 μM
Method in brief: as §1

MDA-MB-468 = test: as above; format: cell-based, human; details: MDA-MB-468, 10 μM
Method in brief: as §1

T-47D = test: as above; format: cell-based, human; details: 10 μM
Method in brief: as §1

[1] = tested on: NCI 60 cancer cell line panel; test: NCI 60 panel growth inhibition (SRB), whole panel; format: cell-based, human; details: mean over NCI 60 panel, 10 μM
Method in brief: as §1

Row | Compound | GI% (CCRF-CEM) [%] | GI% (HL-60(TB)) [%] | GI% (RPMI-8226) [%] | GI% (A549/ATCC) [%] | GI% (EKVX) [%] | GI% (HOP-62) | GI% (HOP-92) [%] | GI% (NCI-H226) [%] | GI% (NCI-H23) [%] | GI% (NCI-H322M) [%] | GI% (NCI-H460) | GI% (NCI-H522) [%] | GI% (IGROV1) [%] | GI% (NCI/ADR-RES) [%] | GI% (OVCAR-3) | GI% (OVCAR-4) [%] | GI% (OVCAR-5) | GI% (OVCAR-8) [%] | GI% (SK-OV-3) [%] | GI% (786-0) | also measured
1 | O=C(COc1ccccc1-c1nc2ccccc2s1)NN=C1C(=O)Nc2ccc(Br)cc21 [Compound 9f, 2-(2-(Benzo[d]thiazol-2-yl)phenoxy)-N′-(5-bromo-2-oxoindolin-3-ylidene)acetohydrazide] | 21.91 | 29.39 | 29.01 | 29.34 | 19.72 | 74.09% | 51.76 | 106.99 | 40.56 | 17.70 | 18.32% | 51.70 | 42.62 | 49.76 | 81.63% | 90.58 | – (GI% < 5%) | 71.28 | 17.03 | 101.23% | GI% (A498): 12.61%; GI% (ACHN): 64.71%; GI% (CAKI-1): 51.85%; GI% (RXF 393): 82.91%; GI% (SN12C): 67.11%; GI% (TK-10): 55.14%; GI% (UO-31): 21.89%; GI% (BT-549): 86.84%; GI% (HS 578T): 75.23%; GI% (MCF7): 55.39%; GI% (MDA-MB-231/ATCC): 55.33%; GI% (MDA-MB-468): 63.10%; GI% (T-47D): 60.76%; Mean GI% [1]: 43.78%; melting point: 261 to 263 °C
2 | COc1cccc(-c2nc3ccccc3s2)c1OCC(=O)NN=C1C(=O)Nc2ccccc21 [Compound 9g, 2-(2-(Benzo[d]thiazol-2-yl)-6-methoxyphenoxy)-N′-(2-oxoindolin-3-ylidene)acetohydrazide] | 41.07 | 15.30 | 50.80 | 16.44 | 29.56 | – (GI% < 5%) | 34.60 | 45.16 | 25.24 | 10.24 | – (GI% < 5%) | 33.32 | 7.95 | 28.45 | – (GI% < 5%) | 27.14 | – (GI% < 5%) | 10.62 | 8.22 | – (GI% < 5%) | GI% (A498): – (GI% < 5%); GI% (ACHN): 14.78%; GI% (CAKI-1): 34.75%; GI% (RXF 393): 35.85%; GI% (SN12C): 18.49%; GI% (TK-10): – (GI% < 5%); GI% (UO-31): 41.81%; GI% (BT-549): 25.83%; GI% (HS 578T): 16.30%; GI% (MCF7): 26.62%; GI% (MDA-MB-231/ATCC): 18.32%; GI% (MDA-MB-468): 50.47%; GI% (T-47D): 29.32%; Mean GI% [1]: 15.46%; melting point: 246 to 248 °C
